From US10342792B2, “Slow-release conjugates of SN-38” (ProLynx LLC, priority 2013, dated 2019)
Several values for one entry are separate records, joined by “and”; a condition that tells them apart may be missing. Equal values may be shown once. Read-outs that look alike come from different tables or passages of the source.

Columns and labels:
[1] = cited from earlier work
[2] = cited from earlier work; remark: listed apart in the source
[3] = in vivo; settings: female, Sprague-Dawley, rat
Experimental: The samples were centrifuged at approximately 1,500×g (force) for 10 minutes at 2 to 8° C. to remove red blood cells and obtain ˜150 uL plasma. The plasma was divided into 2 aliquots and transferred to cryogenic vials and stored in a freezer at −80° C. prior to analysis.
For analysis, the samples were thawed on ice and mixed with 2 volumes of acetonitrile/0.5% acetic acid containing 8 ng/mL of camptothecin as internal standard. Precipitated protein was removed by centrifugation at 16,000×g for 10 min at 4° C. Sample supernatants (20 uL) were analyzed using a Phenomenex® 300 Å Jupiter 5 um 150×4.6 mm C18 HPLC column thermostatted at 40° C. using a gradient of 100 mM sodium phosphate, 3 mM heptane sulfonate, pH 4.0 (Buffer A) and 75% acetonitrile in water (Buffer B) at 1.0 mL/min. […] Sample elution was followed with a diode array detector and a fluorescence detector with excitation set at 370 nm and the emission set at 470 nm for the first 9 min followed by emission at 534 nm for the final 10 min. Concentrations were calculated by comparison of peak areas to standard curves of the conjugate (absorbance 380 nm), and SN-38 (fluorescence Ex: 370 nm; Em: 534 nm). […]
Plasma concentration versus time data for the conjugate were analyzed using a two-phase model where C(t)=A*exp(−αt)+B*exp(−βt) where A+B=dose/Vd. […]

[4] = fold more active than irinotecan; cited from earlier work
[5] = Pharmacokinetic model prediction for human using allometric scaling; settings: estimated by allometric scaling
[6] = ionization of the 10-OH; cited from earlier work

half-life [3]: 15 min
kc1, elimination of free SN-38 from the plasma [3]: 2.77 h⁻¹
Vss [5]: ~0.15 L/kg
kc1, elimination rate constant [5]: ~0.7 h⁻¹
kc1 t1/2 [5]: ~60 min
Structure (SMILES): CCc1c2c(nc3ccc(O)cc13)-c1cc3c(c(=O)n1C2)COC(=O)[C@]3(O)CC [SN-38, 7-ethyl-10-hydroxycamptothecin]
aqueous solubility ([1]; aqueous / water): 18 µM and 17 µM
aqueous solubility ([1]; in water): 7 µg/mL
volume of distribution Vd, reported value [2]: 0.18 L/kg
activity relative to irinotecan [4]: ~1000 ×
pKa [6]: ~8.6
